According to a melting point compilation (Tetko et al.; mined from patent text by program, amines drawn as free bases though some values may be those of a salt):

| SMILES | melting point [°C] |
| --- | --- |
| O=C1c2c(Cl)cccc2-n2cnc(-c3noc(CN(C4CCCCC4)C4CCCCC4)n3)c2[C@@H]2CCN12 | 155 to 185 |
| CCOC(=O)/C=C/c1cn(Cc2ccc(OCc3nc(-c4ccccc4)oc3C)cc2)cc1-c1ccccc1 | 120 to 121 |
| Fc1ccc(N2CCN(CCCOc3ccc(-n4cccn4)cc3)CC2)cc1 | 151 to 153 |
| CC(C)(Cc1c(C(=O)c2ccccc2)c2cc(OCc3ccc4ccccc4n3)ccc2n1Cc1ccc(Cl)cc1)C(=O)O | 165 to 166 |
| COC(=O)Nc1cc(Oc2ccc3c(C(=O)Nc4cccc(C(F)(F)F)c4)cccc3c2)ccn1 | 230 to 232 |
| CCOCc1cc2cc(Br)ccc2oc1=Nc1ccc(C)cc1 | 116 to 117 |
| O=C1Nc2ccccc2C(c2ccccc2F)CC1Br (stereo not drawn) | 208 to 214 |
| Clc1cccc(-c2ccc3nncn3n2)c1 | 175 to 177 |
| COc1cc2c(cc1OC)NC(=O)N(CCCN(C)CCCSc1ccccc1)CC2 | 107 to 110 |
| CC1(C)O[C@H](CC#N)C[C@H](CC(=O)N(c2ccccc2)c2ccccc2)O1 | 98 to 100 |
| O=C(O)c1cc(NCCCc2ccc([N+](=O)[O-])cc2)ccc1O | 229 to 231 |
| CNc1ccc(C2CC(=O)N(C)C2C(O)c2ccc(-c3ccccc3)s2)cc1 (stereo not drawn) | 212 |
| Cc1ccc2[nH]c3c(c2c1)C(=O)CCC3 | > 255 |
| CCOC(=O)C(Cc1ccccc1)NC(=O)COc1ccc(C2=NNC(=O)NC2)cc1 (stereo not drawn) | 148 to 150 |
| CCCOc1ccc(S(C)(=O)=O)cc1C(=O)Nc1c(CC)n[nH]c1C(N)=O | 209 to 210 |
| CCCCc1nc(SC)c(C(=O)OCC)n1Cc1ccccc1-c1cccc(S(=O)(=O)NC#N)c1 | 108 |
| CCOc1cc2ncc(C#N)c(Nc3ccc4c(c3)C(=O)OC4)c2cc1OCC | 280 to 284 |
| Clc1cnc(Oc2cccc(OCc3ccc(Cl)cc3Cl)c2)nc1 | 110 |
| CCN(CC)C(=O)c1c(OC)cccc1-c1ccccc1 | 79 to 80 |
| CC(C)(C)Sc1c(CC(C)(C)C(=O)O)n(Cc2ccc(Cl)cc2)c2ccc(OCc3ccncc3)cc12 | 238 to 240 |
| CCOC(=O)C1=Cc2cc(F)c(Cl)cc2N(Cc2ccccc2)C1 | 211 to 212 |
| CSCc1c(N)c([N+](=O)[O-])cc(F)c1F | 110 to 112 |
| CN1C(=O)C2(COc3cc4c(cc32)OCO4)c2ccccc21 (stereo not drawn) | 142 to 144 |
| CCC(=O)N1CCC(NC(=O)Nc2ccc(C(=O)O)cc2)CC1 | 201 to 204 |
| CC(=O)OC1C(C)OC(n2c(Br)nc3cc(Cl)c(Cl)cc32)C1OC(C)=O (stereo not drawn) | 145 to 148 |
| CCN(CC)C(=O)n1cnc(S(=O)(=O)CC2CCCCC2)n1 | 40 to 46 |

| SMILES | melting point [°C] |
| --- | --- |
| COC1CCC(NC(=O)C2CC3c4cccc5c4c(cn5C(C)C)CC3N(C)C2)CC1 (stereo not drawn) | > 230 |
| CN1CCN(C2CC3C4CCC5CC(O)C(N6CCC(O)CC6)CC5(C)C4CCC3(C)C2O)CC1 (stereo not drawn) | 248 to 250 |
| CC(C)(C)OC(=O)C[C@@H]1C[C@@H](COc2ccc(-c3ccc(C#N)c(Cl)c3)cc2)NC1=O | 140 to 142 |
| O=[N+]([O-])c1ccc(-c2cc3c(Cl)ncnc3[nH]2)cc1 | > 280 |
| COc1ccc(C(=O)Nc2ccccc2)cc1NCc1ccc(-c2ccccc2)cc1 | 222 to 223 |
| OC(=S)CCC1CCN(Cc2ccc3c(c2)Nc2nccnc2S3)CC1 | 110 to 113 |
| N#Cc1c(N2CCCCC2)cc(-c2ccc3ccccc3c2)c2c1-c1ccccc1C2=O | 166 to 167 |
| COCOc1cc(F)ccc1-c1cc(-c2cccc(C(=O)O)c2)c(C#N)c(NC(=O)c2ccco2)n1 | 254 |
| COc1nc2cc(Cl)c(Cl)c(C#Cc3ccccc3)c2nc1OC | 170 to 172 |
| CSC(C)(C)C(=O)N[C@@H](CS)C(=O)O | 110 to 112 |
| O=c1[nH]c2cc(Cl)c(F)c([N+](=O)[O-])c2[nH]c1=O | 308 to 310 |
| Cc1nc(C(=O)NC2CC2)c2n1-c1ccc(Cl)cc1C(c1ccccc1F)=NC2 | 196 to 197 |
| CN1CC(C)(C)c2ccc(NC(=O)/C=C/c3ccc(C(C)(C)C)cc3)cc21 | 90 to 101 |
| C[C@H]1[C@H](O)C2(CC2)C(=O)N1c1ccc(C#N)c(C(F)(F)F)c1 | 109 to 110 |
| COc1ccc2c(c1)CC(=O)N2Nc1ccncc1 | 169 to 171 |
| CCN(CC)C(=O)C=Cc1ccc(Cl)c(Cl)c1 | 60.7 |
| CCC(COCc1ccc(C#N)cc1)n1cnc2c(N)nc3ccccc3c21 (stereo not drawn) | 160 to 161 |
| COc1ccc2ccc(OS(=O)(=O)C(F)(F)F)cc2c1 | 34 |
| Fc1ccc(Nc2nnc(Cc3ccncc3)c3ccccc23)cc1Cl | 185 to 187 |
| O=C(NCc1ccc(Cl)cc1)c1ccccc1S | 131 to 132 |
| CCOC(=O)C1C=CC(c2ccccc2)n2c(=O)n(CCl)c(=O)n21 (stereo not drawn) | 145 to 146 |
| O=C(N[C@H]1CC[C@H](CCN2CCN(c3nccc4c3CCO4)CC2)CC1)c1ccc2ncccc2c1 | 227 |
| CC(C)n1nc(-c2sc(NC(=O)CN(C)CCN(C)C)nc2-c2ccccc2)ccc1=O | 155 to 157 |
| Fc1ccccc1NC(=S)c1ccccn1 | 94 to 97 |
| CCOc1ncc(C(C)=O)cc1-c1nc2c(CC)n(CC3CC3)nc2c(=O)[nH]1 | 200 to 201 |
| CN(C(=O)/C=C/CSc1nc(N)cc(Cl)n1)c1ccccc1 | 152 to 154 |

The next lines start with the values.

| melting point [°C] | SMILES |
| --- | --- |
| 238 | CCCCNCCCOc1ccc(-c2ccc(C(=O)O)cc2)cc1-c1ccc2c(c1)C(C)(C)CCC2(C)C |
| 178 to 182 | COc1ccccc1Oc1c(NS(=O)(=O)c2ccc3ccccc3c2)nc(N2CCOCC2)nc1OCCOc1ncc(Br)cn1 |
| 46 to 51 | CC(C)NC(=O)CCCCCCI |
| 247 to 249 | CCOC(=O)c1ccc(CCC2CC(n3c4ccccc4c4ccccc43)c3ccccc3N2C(=O)c2ccc(OC)c(OC)c2)cc1 (stereo not drawn) |
| 174 to 175 | O=C(O)CC1Cc2ccc(O)cc2OC1=O (stereo not drawn) |
| 124 to 126 | O=C1N(Cc2ccc(-c3ccccc3C(F)(F)F)o2)c2ccccc2C12COc1cc3c(cc12)OCO3 (stereo not drawn) |
| 70 to 72 | COC(=O)C1=C(C)NC(C)=C(C(=O)OCCN2CCN(C(c3ccccc3)c3ccccc3)CC2)C1c1cccc(C(F)(F)F)c1 (stereo not drawn) |
| 167 to 168 | O=C(CN1CCNC1=O)N1CCC(C2c3ncc(Br)cc3CCc3cc(Cl)cc(Br)c32)CC1 (single isomer, unassigned; (+)) |
| 154 | Cn1cncc1C(O)(c1ccc(Cl)cc1)c1ccc2nc(C#Cc3ccccc3)cc(-c3cccc(Cl)c3)c2c1 (stereo not drawn) |
| 50 to 51 | O=C1CC(SCc2ccccc2)N1 (stereo not drawn) |
| 224 to 226 | CCNC(=O)[C@H]1CN(c2ccc3c(c2)sc(=O)n3C)C(=O)O1 |
| 208 | Cc1oc2ccccc2c(=O)c1NC(=O)C(=O)O |
| 58 | C=C1C[C@@H](O)[C@H](/C=C/[C@@H](O)CCCCC)[C@H]1Cc1cccc(OCc2ccccc2)c1 |
| 138 to 139 | CCOC(=O)c1cnn2ccc3c(c12)CCO3 |
| 253 to 255 | CCNC(=O)c1cnn(C)c1C(=O)Nc1ccn2nc(-c3ccccc3)nc2c1 |
| 90 to 105 | O=C(c1cnc2ccccc2n1)N1CC2CC2(c2ccc(Cl)cc2)C1 (stereo not drawn) |
| 108 to 110 | COC(OC)c1cccc(C=Cc2cccc(-n3cccc3)c2)c1 |
| 204 to 205 | CCCC[C@H](NC(=O)[C@H](CC(=O)O)NC(=O)Nc1ccc([N+](=O)[O-])cc1)C(=O)OC |
| 232 | NC(=O)c1c(Cl)c(-c2ccccc2)n2c1CN(C(=O)c1ccc(-c3ccccn3)s1)CC2 |
| 118 to 120 | O=C(Cl)c1ccc(NC(=O)c2ccccc2-c2ccccc2)cc1 |
| 217 to 219 | CCOCCCc1ccc(-c2ccc3c(c2)C=C(C(=O)Nc2ccc(CN(C)C4CCOCC4)cc2)CCS3(=O)=O)cc1 |

| melting point [°C] | SMILES |
| --- | --- |
| 217 | CCOC(=O)c1c(Cl)c2cc(F)cnc2[nH]c1=O |
| 90 | O=C1C=CC(Br)N(CCl)N1 (stereo not drawn) |
| 161 to 163 | COC(=O)C1=C(NC(=O)Nc2cc(C(=O)OC(C)C)c(Cl)cc2F)CCS1 |
| 190 to 192 | COc1cc2ncc(N[C@@H]3C[C@@H]4C[C@H]3C[C@H]4O)nc2cc1OC |
| 169 to 171 | Cc1cccc(C)c1N(CCCc1cccnc1)C(=O)CC(C)N1C(=O)c2ccccc2C1=O (stereo not drawn) |
| 62 to 64 | Cc1ccc(C=Cc2csc3ccccc23)s1 |
| 124 to 125 | CC(=O)Nc1cc(F)ccc1F |
| 124 to 128 | Nc1cc(F)ccc1C(=O)CCCN1CCN(c2cc3ccccc3cn2)CC1 |
| 118 to 120 | Clc1cc(Nc2cc(C3CC3)n[nH]2)nc(Sc2ccc3ccccc3c2)n1 |
| 225 | O=C(Nc1cc(S(=O)(=O)NC(CO)CO)sc1Cl)c1cnn2c(C(F)(F)F)cc(-c3ccc(C(F)(F)F)cc3)nc12 |
| 102 to 105 | Cc1cc(C(F)(F)F)nn1CC(=O)N1CCC(c2nc(NC(=O)C3=C(O)CCCC3=O)cs2)CC1 |
| 173 | COc1cc(C(O)CN2CCN(C(c3ccccc3)c3ccccc3)CC2)cc(OC)c1OC (stereo not drawn) |
| 306 to 307 | CC(C)(C(=O)O)c1ccc(C(=O)Nc2cn3cc(-c4cn[nH]c4)ccc3n2)cc1 |
| 82 to 84 | CS(=O)(=O)c1ccc(-n2cc(C(F)(F)F)nc2-c2ccc(-c3ccco3)cc2)cc1 |
| 67.5 to 68 | Nc1ccc(-c2ccc(N)cc2OC(F)(F)F)c(OC(F)(F)F)c1 |
| > 260 | COc1cc(OC)c(-c2cncnc2)cc1/C=C/C(=O)c1ccc(C(=O)O)cc1 |
| 75.2 to 76.3 | COC(=O)c1ccc(COc2cc3c(=O)ccn4c5ccc(Br)cc5c(c2)c34)nc1 |
| > 240 | CCOC(=O)C1=Nc2cc3c(c(C)c2=C1C)N=c1ccc(C#N)cc1=3 |
| > 300 | CC(C)(C)OC(=O)NC1CCCC(NC(=O)c2ccc(-c3[nH]nc4c3C(=O)c3c(NC(=O)NN5CCOCC5)cccc3-4)s2)C1 (stereo not drawn) |
| 135 to 136 | Cc1cc(C)n(C(=O)CNS(=O)(=O)c2ccc(Cl)cc2)n1 |
